The values below come from patent US7399462B2, “Protectant for UV-induced skin damage” (QLT USA, Inc., priority 2002, dated 2008).

One series has as its system UV-induced tumors. Conditions: topical; UV induced mouse carcinogenicity model; cited from earlier work.
For series [1], the system named is UV-induced skin tumor formation.

In the case of `O=C(OOC(=O)c1ccccc1)c1ccccc1` [Benzoyl peroxide], in the series on UV-induced tumors, the “Formation of skin tumors compared to untreated or vehicle controls” value was “promote the formation of skin tumors”.

Turning to `Nc1ccc(S(=O)(=O)c2ccc(N)cc2)cc1` [Dapsone, bis(4-aminophenyl)sulfone], the “Effect on Unbiased Median Weeks to Tumor (in words)” value in series [1] (600 RBU/week) is given as “increased the Unbiased Median Weeks to Tumor in a dose-dependent manner”. For the same compound, the “Tumor Potency Ratio (≧1 mm Tumor Size), Sexes Combined” value in series [1] (UVR 600 RBU/week, sexes combined, calculated from Unbiased Median Week to Tumor and untreated 600/1200 RBU calibration) is “reduced with dapsone application in a dose-dependent manner”. Take `CC1=C(/C=C/C(C)=C/C=C/C(C)=C/C(=O)O)C(C)(C)CCC1` [tretinoin]: the “Formation of skin tumors compared to untreated or vehicle controls” value in the series on UV-induced tumors is on record as “promote the formation of skin tumors”.
